“Also recorded” adds a separate entry of the source.
Key:
Assay type in all cases: cell-based, murine
[1] = tested on: LPS-induced NO generation in RAW 264.7 macrophages; test: NO inhibitory assay (Griess reaction) in LPS-activated macrophages; details: for EC50: Mus musculus, RAW264.7, 50% inhibition of the LPS-induced NO generation, RAW 264.7, LPS 1 μg/ml, 24 h, read-out: ED50 (the source's name); for production of NO by LPS-activated cells: RAW 264.7, LPS 1 μg/ml 24 h, Griess reaction; for background level of NO: compound alone, no LPS, RAW 264.7, data not shown
Method: In (A) and (C), cells (5×10^5/ml) were incubated with polyenylpyrrole derivatives or DMSO (vehicle) for 30 min followed by stimulating with LPS (1 μg/ml) for 24 h, then NO (A), IL-6 and TNF-α (C) concentration in culture medium were assayed by Griess reaction and ELISA, respectively. In (B), cells (5×10^5/ml) were pretreated with polyenylpyrrole derivatives or DMSO for 30 min followed by stimulating with LPS (1 μg/ml) for 24 h, then the protein expression of iNOS and COX-2 were assayed by Western blot. […] RAW 264.7 cells were seeded in 24-well plates at a density of 5×10^5 cells/ml, and then incubated with or without LPS (1 μg/ml) in the absence or presence of tested samples for 24 h. The effects of the tested samples on NO production were measured indirectly by analysis of nitrite levels using the Griess reaction.

RAW 264.7 cells = test: AlamarBlue assay for cell viability; details: Mus musculus, RAW264.7, cytotoxicity against RAW 264.7 cells, 24 h treatment
Method: RAW 264.7 cells were seeded at a density of 5000 cells in 100 μl RPMI 1640 medium with 10% heat-inactivated FBS per well in 96-well flat-bottom plates and incubated for 24 h at 37° C. in a 5% CO2 incubator. Cells were incubated with tested samples for 24 h and the AlamarBlue® assay was used to determine the cytotoxicity of the test samples. The procedure was conducted following the protocol described in the manufacture's instruction (AbD Serotec Ltd).
The aim of this study is to identify non-toxic polyenylpyrrole derivatives which can be used as anti-inflammatory agents. Compounds 1a-n were evaluated for their cytotoxicities against the murine macrophages cell line RAW 264.7 after 24 h treatment.

iNOS = test: Western blot of iNOS protein in LPS-activated RAW 264.7 macrophages; details: LPS-activated RAW 264.7, compared with vehicle
Method: (§1) In (A) and (C), cells (5×10^5/ml) were incubated with polyenylpyrrole derivatives or DMSO (vehicle) for 30 min followed by stimulating with LPS (1 μg/ml) for 24 h, then NO (A), IL-6 and TNF-α (C) concentration in culture medium were assayed by Griess reaction and ELISA, respectively. In (B), cells (5×10^5/ml) were pretreated with polyenylpyrrole derivatives or DMSO for 30 min followed by stimulating with LPS (1 μg/ml) for 24 h, then the protein expression of iNOS and COX-2 were assayed by Western blot.
(§2) Whole cell lysates were separated by SDS-PAGE and electrotransferred to a PVDF membrane. The membranes were incubated in blocking solution—5% nonfat milk in phosphate buffered saline with 0.1% Tween 20—at room temperature for 1 h. Each membrane was incubated with a specific primary antibody at room temperature for 2 h. After washing three times in PBS with 0.1% Tween 20, the membrane was incubated with an HRP-conjugated secondary antibody directed against the primary antibody. The membrane was developed by an enhanced chemiluminescence Western blot detection system.

IL-6 = IL-6 ELISA, RAW 264.7 macrophages; details: for secretion of IL-6: LPS-activated RAW 264.7, LPS 1 μg/ml 24 h; for background level of IL-6: compound alone, no LPS, data not shown
Method: (§3) The effects of tested samples on IL-1β, TNF-α and IL-6 production were measured by ELISA according to the manufacturer's instruction. In brief, 50 μl of biotinylated antibody reagent and 50 μl of supernatant were added to an anti-mouse IL-1β, TNF-α and IL-6 precoated stripwell plate, and incubated at room temperature for 2 h. After washing the plate three times with washing buffer, 100 μl of diluted streptavidin-HRP concentrate was added to each well and incubated at room temperature for 30 min. The washing process was repeated; then 100 μl of a premixed tetramethylbenzidine substrate solution was added to each well and developed at room temperature in the dark for 30 min. Following the addition of 100 μl of stop solution to each well to stop the reaction, the absorbance of the plate was measured by a microplate reader at 450 nm wavelength.

TNF-α = TNF-α ELISA, RAW 264.7 macrophages; details: for TNF-α secretion: LPS-activated RAW 264.7, LPS 1 μg/ml 24 h; for background level of TNF-α: compound alone, no LPS, data not shown
Method: as §1, §3

COX-2 = test: Western blot of COX-2 protein in LPS-activated RAW 264.7 macrophages
Method: as §1, §2

ROS = test: Intracellular ROS production, LPS-activated RAW 264.7 macrophages; details: compound 1h 20 μM, NAC 10 mM, 30 min before LPS
Method: In (A), RAW 264.7 macrophages (5×10^5/ml) were incubated with compound 1h (20 μM), N-acetyl cysteine (NAC; 10 mM) or DMSO (vehicle) for 30 min followed by LPS (1 μg/ml) stimulating for the indicated time, then ROS levels were measured by detection of the fluorescence intensity of the fluorophore carboxyl-DCF and expressed relative to those at time zero. In (B), RAW 264.7 macrophages (5×10^5/ml) were incubated with compound 1h (20 μM) or DMSO for 30 min followed by LPS (1 μg/ml) stimulating for 0-60 min, then the phosphorylation levels of ERK1/2, JNK1/2, p38 were analyzed by Western blot. In (C), J774A.1 macrophages (5×10^5/ml) were incubated with compound 1h or DMSO for 30 min followed by LPS (1 μg/ml) stimulating for 20 min, then the phosphorylation levels of ERK1/2, JNK1/2, p38 were analyzed by Western blot.
Intracellular ROS stimulated by LPS was measured by detecting the fluorescence intensity of the 2′,7′-dichlorofluorescein diacetate (H2DCFDA) oxidized product (DCF) (Molecular Probes, Eugene, Oreg.). […] The relative fluorescence intensity of fluorophore DCF, formed by peroxide oxidation of the non-fluorescent precursor, was detected at an excitation wavelength of 485 nm and an emission wavelength of 530 nm with a microplate absorbance reader (Bio-Rad Laboratories, Inc).

Row | SMILES | EC50 [1] | IC50 (RAW 264.7 cells) | production of NO by LPS-activated cells [1] | background level of NO [1] | expression of iNOS protein (iNOS) | secretion of IL-6 (IL-6) | background level of IL-6 (IL-6) | TNF-α secretion (TNF-α) | background level of TNF-α (TNF-α) | COX-2 expression (COX-2) | LPS-stimulated ROS production (ROS)
1 | COc1cc(/C=C/C=C/C=C/C=C/c2sccc2Cl)oc(=O)c1C [Compound 1k] | 18 ± 2 µM | > 100 µM | – | – | – | – | – | – | – | – | –
2 | COc1cc(/C=C/C=C/C=C/C=C/c2c(Cl)ccn2S(C)(=O)=O)oc(=O)c1C [Compound 1n] | 17 ± 2 µM | > 100 µM | decreased production; also recorded: decreased the production of NO by LPS-activated cells in a dose-dependent manner | did not alter | decreased production; also recorded: reduced the expression of iNOS protein | decreased production; also recorded: decreased the secretion of IL-6 by LPS-activated RAW 264.7 macrophages in a dose-dependent manner | did not alter | slight reduced by compounds 1h, 1i and 1n, but not significantly | did not alter | did not affect | –
3 | COc1cc(/C=C/C=C/C=C/C=C/c2sccc2Cl)oc(=O)c1 [Compound 1j] | 29 ± 6 µM | > 100 µM | – | – | – | – | – | – | – | – | –
4 | COc1cc(/C=C/C=C/C=C/C=C/c2ccccc2Cl)oc(=O)c1C [Compound 1l] | 18 ± 3 µM | > 100 µM | – | – | – | – | – | – | – | – | –
5 | COc1cc(/C=C/C=C/C=C/C=C/c2cccc(Cl)c2)oc(=O)c1C [Compound 1m] | 26 ± 3 µM | > 100 µM | – | – | – | – | – | – | – | – | –
6 | Cc1c(O)cc(/C=C/C=C/C=C/C=C/c2[nH]ccc2Cl)oc1=O [Compound 1i] | 16 ± 2 µM | > 100 µM | decreased production; also recorded: decreased the production of NO by LPS-activated cells in a dose-dependent manner | did not alter | decreased production; also recorded: reduced the expression of iNOS protein | decreased production; also recorded: decreased the secretion of IL-6 by LPS-activated RAW 264.7 macrophages in a dose-dependent manner | did not alter | slight reduced by compounds 1h, 1i and 1n, but not significantly | did not alter | did not affect | –
7 | CC(=O)N[C@@H](CS)C(=O)O [N-acetyl cysteine, reference compound] | – | – | – | – | – | – | – | – | – | – | reduced ROS production

Source: patent publication US9475789B2, “Use of polyenylpyrrole derivatives for treating inflammation” (WELLHEAD BIOLOGICAL TECHNOLOGY CORP., priority 2014, dated 2016)
